Measurements published in patent US10934300B2, “Atropisomerism for enhanced kinase inhibitor selectivity” (San Diego State University Foundation, priority 2017, dated 2021).

How the values were obtained:
[1] = system: panel of tyrosine kinases; assay: Kinase inhibitor profiling across a panel of tyrosine kinases, selectivity score; format: biochemical
Method: To analyze each analog's selectivity across the panel, selectivity scores were used (Davis et al., Nat. Biotechnol. 2011, 29, 1046-51), which are simply the number of kinases inhibited above a certain threshold divided by the number of kinases evaluated. […] For example at 1000 nM 2e-(R) yielded an S(40%) of 0.11 while 2e-(S) gave an S(40%) of 0.16. […] Differences in selectivity between 2e-(R) and 2e-(S) at 5000 nM (4.5 times the IC50 of 2e-(S) toward Src) and for 5 at 1000 nM (6.25 times the IC50 of 5 toward Src) can be viewed graphically across tyrosine kinases (FIG. 3). Importantly, similar trends were also observed across each of the atropisomeric series tested.
All samples were sent out to Life Technologies to obtain kinase inhibition data. A brief description of the assays and analyses are included below.
Assay Theory (SelectScreen® Kinase Profiling Services (Life Technologies, Madison, Wis. USA). The Z′-LYTE® biochemical assay employs a fluorescence-based, coupled-enzyme format and is based on the differential sensitivity of phosphorylated and non-phosphorylated peptides to proteolytic cleavage. The peptide substrate is labeled with two fluorophores—one at each end—that make up a FRET pair.
In the primary reaction, the kinase transfers the gamma-phosphate of ATP to a single tyrosine, serine or threonine residue in a synthetic FRET-peptide. In the secondary reaction, a site-specific protease recognizes and cleaves non-phosphorylated FRET-peptides. Phosphorylation of FRET-peptides suppresses cleavage by the Development Reagent. Cleavage disrupts FRET between the donor (i.e., coumarin) and acceptor (i.e., fluorescein) fluorophores on the FRET-peptide, whereas uncleaved, phosphorylated FRET-peptides maintain FRET. A ratiometric method, which calculates the ratio (the Emission Ratio) of donor emission to acceptor emission after excitation of the donor fluorophore at 400 nm, is used to quantitate reaction progress, as shown in the equation below: […]
A significant benefit of this ratiometric method for quantitating reaction progress is the elimination of well-to-well variations in FRET-peptide concentration and signal intensities. […] Both cleaved and uncleaved FRET-peptides contribute to the fluorescence signals and therefore to the Emission Ratio. The extent of phosphorylation of the FRET-peptide can be calculated from the Emission Ratio. The Emission Ratio will remain low 1f the FRET-peptide is phosphorylated (i.e., no kinase inhibition) and will be high if the FRET-peptide is non-phosphorylated (i.e., kinase inhibition).
Both cleaved and uncleaved FRET-peptides contribute to the fluorescence signals and therefore to the Emission Ratio. The extent of phosphorylation of the FRET-peptide can be calculated from the Emission Ratio. The Emission Ratio will remain low if the FRET-peptide is phosphorylated (i.e., no kinase inhibition) and will be high if the FRET-peptide is non-phosphorylated (i.e., kinase inhibition).

[2] = target: Abl (Homo sapiens, UniProt P00519); assay: Z'-LYTE kinase inhibition, Abl
[3] = target: Alk (Homo sapiens, UniProt Q9UM73); assay: Z'-LYTE kinase inhibition, Alk
[4] = target: Blk (Homo sapiens, UniProt P51451); assay: Z'-LYTE kinase inhibition, Blk
[5] = target: BTK (Homo sapiens, UniProt Q06187); assay: Z'-LYTE kinase inhibition, BTK
[6] = target: CSK (Homo sapiens, UniProt P41240); assay: Z'-LYTE kinase inhibition, CSK
[7] = target: Fgr (Homo sapiens, UniProt P09769); assay: Z'-LYTE kinase inhibition, Fgr
[8] = target: Fyn (Homo sapiens, UniProt P06241); assay: Z'-LYTE kinase inhibition, Fyn
[9] = target: Hck (Homo sapiens, UniProt P08631); assay: Z'-LYTE kinase inhibition, Hck
[10] = target: Kit (Homo sapiens, UniProt P10721); assay: Z'-LYTE kinase inhibition, Kit
[11] = target: Lck (Homo sapiens, UniProt P06239); assay: Z'-LYTE kinase inhibition, Lck
[12] = target: Lyn (Homo sapiens, UniProt P07948); assay: Z'-LYTE kinase inhibition, Lyn
[13] = target: Ret kinase (Homo sapiens, UniProt P07949); assay: Z'-LYTE kinase inhibition, Ret
[14] = target: Yes (Homo sapiens, UniProt P07947); assay: Z'-LYTE kinase inhibition, Yes
[15] = target: Src kinase (Homo sapiens, UniProt P12931); assay: Z'-LYTE kinase inhibition, Src; conditions: Src relative to Yes
[16] = target: EGFR (Homo sapiens, UniProt P00533); assay: Z'-LYTE kinase inhibition, EGFR; conditions: EGFR relative to Yes
[17] = target: pdgfr-a (Homo sapiens, UniProt P16234); assay: Z'-LYTE kinase inhibition, pdgfr-a
[18] = target: pdgfr-b (Homo sapiens, UniProt P09619); assay: Z'-LYTE kinase inhibition, pdgfr-b

Sequence of Ret kinase (P07949 29-1114): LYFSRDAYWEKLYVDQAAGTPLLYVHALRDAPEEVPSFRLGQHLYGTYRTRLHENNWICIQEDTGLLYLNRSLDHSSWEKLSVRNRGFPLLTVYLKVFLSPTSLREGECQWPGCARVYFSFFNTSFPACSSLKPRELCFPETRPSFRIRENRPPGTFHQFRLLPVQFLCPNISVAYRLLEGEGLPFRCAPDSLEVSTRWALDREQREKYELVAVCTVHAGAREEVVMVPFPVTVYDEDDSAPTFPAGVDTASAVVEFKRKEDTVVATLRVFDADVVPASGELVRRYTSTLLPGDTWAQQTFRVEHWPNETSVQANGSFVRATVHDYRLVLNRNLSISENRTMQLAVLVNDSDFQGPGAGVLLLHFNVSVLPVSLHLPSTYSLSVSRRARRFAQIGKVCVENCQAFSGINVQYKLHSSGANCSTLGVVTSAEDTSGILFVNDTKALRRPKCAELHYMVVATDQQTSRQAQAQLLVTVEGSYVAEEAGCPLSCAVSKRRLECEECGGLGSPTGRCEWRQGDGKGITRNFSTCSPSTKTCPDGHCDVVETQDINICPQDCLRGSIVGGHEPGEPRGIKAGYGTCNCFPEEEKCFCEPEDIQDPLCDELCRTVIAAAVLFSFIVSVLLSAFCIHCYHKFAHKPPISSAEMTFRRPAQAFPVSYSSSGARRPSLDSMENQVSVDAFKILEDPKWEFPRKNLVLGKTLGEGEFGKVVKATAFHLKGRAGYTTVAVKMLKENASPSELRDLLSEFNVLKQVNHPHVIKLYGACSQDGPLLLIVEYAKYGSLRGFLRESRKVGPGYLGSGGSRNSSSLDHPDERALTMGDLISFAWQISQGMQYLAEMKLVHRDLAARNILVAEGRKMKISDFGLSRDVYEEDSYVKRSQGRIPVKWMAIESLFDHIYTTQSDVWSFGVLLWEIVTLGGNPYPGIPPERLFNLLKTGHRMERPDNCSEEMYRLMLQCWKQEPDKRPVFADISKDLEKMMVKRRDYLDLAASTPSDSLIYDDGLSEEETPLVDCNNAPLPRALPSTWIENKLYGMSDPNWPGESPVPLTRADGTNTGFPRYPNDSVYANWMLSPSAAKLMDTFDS
Sequence of Yes (P07947 whole entry): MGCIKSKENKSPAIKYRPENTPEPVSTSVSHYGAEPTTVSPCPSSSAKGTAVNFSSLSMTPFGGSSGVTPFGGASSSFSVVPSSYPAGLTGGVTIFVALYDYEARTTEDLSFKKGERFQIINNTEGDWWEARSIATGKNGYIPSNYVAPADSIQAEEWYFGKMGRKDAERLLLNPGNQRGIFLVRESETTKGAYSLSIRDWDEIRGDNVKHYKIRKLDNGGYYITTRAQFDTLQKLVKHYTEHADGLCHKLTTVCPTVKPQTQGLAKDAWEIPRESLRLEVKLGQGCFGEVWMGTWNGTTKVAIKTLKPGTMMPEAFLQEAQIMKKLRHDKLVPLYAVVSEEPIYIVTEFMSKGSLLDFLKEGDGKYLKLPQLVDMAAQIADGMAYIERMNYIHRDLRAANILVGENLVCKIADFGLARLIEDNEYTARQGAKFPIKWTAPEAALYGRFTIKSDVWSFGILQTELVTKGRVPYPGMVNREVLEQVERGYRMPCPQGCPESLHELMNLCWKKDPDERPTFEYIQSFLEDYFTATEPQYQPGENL
Sequence of Abl (P00519 whole entry): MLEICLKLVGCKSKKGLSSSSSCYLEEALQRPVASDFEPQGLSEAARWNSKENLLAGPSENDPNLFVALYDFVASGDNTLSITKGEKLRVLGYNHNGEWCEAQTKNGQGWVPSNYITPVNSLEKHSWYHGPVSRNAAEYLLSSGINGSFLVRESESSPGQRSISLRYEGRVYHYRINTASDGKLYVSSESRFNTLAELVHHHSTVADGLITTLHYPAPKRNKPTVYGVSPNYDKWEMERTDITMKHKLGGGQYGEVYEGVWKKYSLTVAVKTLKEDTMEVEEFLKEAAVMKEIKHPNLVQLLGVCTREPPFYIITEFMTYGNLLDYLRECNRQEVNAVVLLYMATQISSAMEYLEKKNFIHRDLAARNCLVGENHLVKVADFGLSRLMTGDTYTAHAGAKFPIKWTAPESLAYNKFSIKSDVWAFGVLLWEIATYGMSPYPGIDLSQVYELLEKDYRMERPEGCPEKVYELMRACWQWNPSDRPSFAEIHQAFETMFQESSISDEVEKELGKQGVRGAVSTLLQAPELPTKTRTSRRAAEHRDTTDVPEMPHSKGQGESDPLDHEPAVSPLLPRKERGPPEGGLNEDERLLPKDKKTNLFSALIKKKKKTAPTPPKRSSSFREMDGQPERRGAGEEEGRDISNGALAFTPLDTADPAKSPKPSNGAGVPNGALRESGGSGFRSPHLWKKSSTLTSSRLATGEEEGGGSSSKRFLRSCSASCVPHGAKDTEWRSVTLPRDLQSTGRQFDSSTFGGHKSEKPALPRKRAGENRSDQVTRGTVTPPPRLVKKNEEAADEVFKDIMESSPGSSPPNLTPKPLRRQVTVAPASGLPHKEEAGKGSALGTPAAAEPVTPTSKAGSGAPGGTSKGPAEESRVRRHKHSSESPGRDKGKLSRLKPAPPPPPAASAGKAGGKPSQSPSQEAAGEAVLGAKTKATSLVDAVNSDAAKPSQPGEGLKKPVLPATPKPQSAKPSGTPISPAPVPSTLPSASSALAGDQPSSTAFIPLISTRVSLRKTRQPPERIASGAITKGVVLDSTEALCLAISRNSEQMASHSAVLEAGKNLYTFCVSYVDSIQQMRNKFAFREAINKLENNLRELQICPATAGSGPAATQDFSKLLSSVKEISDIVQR
Sequence of Hck (P08631 whole entry): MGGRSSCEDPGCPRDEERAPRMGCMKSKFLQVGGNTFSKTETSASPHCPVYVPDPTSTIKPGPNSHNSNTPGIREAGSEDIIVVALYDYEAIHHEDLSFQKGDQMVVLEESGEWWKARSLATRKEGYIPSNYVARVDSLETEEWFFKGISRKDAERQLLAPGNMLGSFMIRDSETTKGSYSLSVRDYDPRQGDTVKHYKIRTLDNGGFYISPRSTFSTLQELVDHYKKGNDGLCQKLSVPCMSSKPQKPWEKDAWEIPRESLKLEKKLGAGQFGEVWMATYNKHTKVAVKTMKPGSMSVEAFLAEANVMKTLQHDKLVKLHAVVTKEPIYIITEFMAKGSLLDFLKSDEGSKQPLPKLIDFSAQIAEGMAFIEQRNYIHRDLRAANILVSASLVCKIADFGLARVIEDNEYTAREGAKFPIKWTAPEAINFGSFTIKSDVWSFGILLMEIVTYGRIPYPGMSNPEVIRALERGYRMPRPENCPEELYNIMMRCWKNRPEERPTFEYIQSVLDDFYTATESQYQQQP
Sequence of EGFR (P00533 25-1210): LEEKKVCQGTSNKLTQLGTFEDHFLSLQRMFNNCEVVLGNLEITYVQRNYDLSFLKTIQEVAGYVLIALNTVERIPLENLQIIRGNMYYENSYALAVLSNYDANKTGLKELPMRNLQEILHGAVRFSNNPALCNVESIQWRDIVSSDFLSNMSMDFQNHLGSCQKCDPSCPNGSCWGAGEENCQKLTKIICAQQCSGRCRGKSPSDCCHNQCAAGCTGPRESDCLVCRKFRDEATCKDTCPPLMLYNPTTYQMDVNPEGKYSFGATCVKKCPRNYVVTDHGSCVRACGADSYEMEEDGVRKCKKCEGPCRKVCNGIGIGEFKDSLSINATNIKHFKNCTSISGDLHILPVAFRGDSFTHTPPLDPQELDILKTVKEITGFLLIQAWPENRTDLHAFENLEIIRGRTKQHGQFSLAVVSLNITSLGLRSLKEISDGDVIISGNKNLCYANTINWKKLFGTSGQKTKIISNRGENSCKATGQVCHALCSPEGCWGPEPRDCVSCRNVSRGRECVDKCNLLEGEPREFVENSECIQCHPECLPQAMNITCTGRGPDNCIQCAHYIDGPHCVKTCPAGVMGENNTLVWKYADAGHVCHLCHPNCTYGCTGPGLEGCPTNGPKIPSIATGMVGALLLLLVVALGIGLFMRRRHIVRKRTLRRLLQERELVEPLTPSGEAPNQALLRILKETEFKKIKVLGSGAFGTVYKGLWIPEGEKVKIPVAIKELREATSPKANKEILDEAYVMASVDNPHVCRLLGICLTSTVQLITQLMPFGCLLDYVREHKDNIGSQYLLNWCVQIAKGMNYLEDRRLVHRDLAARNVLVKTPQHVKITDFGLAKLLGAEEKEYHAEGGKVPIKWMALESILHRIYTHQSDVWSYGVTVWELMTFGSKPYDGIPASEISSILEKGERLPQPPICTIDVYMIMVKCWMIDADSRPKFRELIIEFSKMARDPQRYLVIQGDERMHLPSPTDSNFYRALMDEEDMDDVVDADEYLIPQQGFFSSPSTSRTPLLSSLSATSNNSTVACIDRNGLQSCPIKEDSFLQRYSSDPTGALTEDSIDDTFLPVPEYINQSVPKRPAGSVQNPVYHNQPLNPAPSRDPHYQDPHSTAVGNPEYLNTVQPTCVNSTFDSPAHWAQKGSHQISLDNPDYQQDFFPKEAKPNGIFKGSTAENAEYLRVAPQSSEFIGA
Sequence of Lck (P06239 whole entry): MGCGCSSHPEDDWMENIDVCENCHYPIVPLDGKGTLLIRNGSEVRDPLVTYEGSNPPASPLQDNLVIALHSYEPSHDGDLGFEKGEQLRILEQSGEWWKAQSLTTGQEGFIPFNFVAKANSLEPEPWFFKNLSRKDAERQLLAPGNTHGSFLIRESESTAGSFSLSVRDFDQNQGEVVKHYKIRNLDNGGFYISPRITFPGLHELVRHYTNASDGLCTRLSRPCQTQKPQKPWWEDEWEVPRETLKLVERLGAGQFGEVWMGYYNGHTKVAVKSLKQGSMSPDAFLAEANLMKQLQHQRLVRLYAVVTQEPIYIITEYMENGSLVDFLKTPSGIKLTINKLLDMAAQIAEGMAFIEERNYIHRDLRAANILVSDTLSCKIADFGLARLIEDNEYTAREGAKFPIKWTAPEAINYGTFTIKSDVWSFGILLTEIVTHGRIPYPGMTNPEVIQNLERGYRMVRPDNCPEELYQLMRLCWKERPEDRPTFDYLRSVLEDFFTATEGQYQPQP

COc1ccc(Cl)c(-c2c(Cl)n(C(C)(C)C)c3ncnc(N)c23)c1 (single isomer, unassigned) [2e-(S), 7-(tert-butyl)-6-chloro-5-(2-chloro-5-methoxyphenyl)-7H-pyrrolo[2,3-d]pyrimidin-4-amine]
S(40%): number of kinases inhibited greater than 40% divided by number of kinases tested (including Src) ([1]; 1000 nM): 0.16 | S(40%): number of kinases inhibited greater than 40% divided by number of kinases tested (including Src) ([1]; 5000 nM): 0.61 | Inhibited % (n/18) of tyrosine kinases ([1]; share of the 18 tyrosine kinases inhibited, concentration not printed in Table 3): (S): Inhibited 16% (3/18) | IC50 of compound Kinase/IC50 of compound Yes ([2]; Abl relative to Yes): 1.96 | S/R (5000 nM): % inhibition 2e-(S) / % inhibition 2e-(R) ([2]; Abl, 5000 nM): 2.57 | S/R (5000 nM): % inhibition 2e-(S) / % inhibition 2e-(R) [3]: 0.38 | S/R (5000 nM): % inhibition 2e-(S) / % inhibition 2e-(R) [4]: 1.46 | S/R (5000 nM): % inhibition 2e-(S) / % inhibition 2e-(R) [5]: 1.86 | S/R (5000 nM): % inhibition 2e-(S) / % inhibition 2e-(R) [6]: 1.28 | S/R (5000 nM): % inhibition 2e-(S) / % inhibition 2e-(R) [7]: 1.05 | S/R (5000 nM): % inhibition 2e-(S) / % inhibition 2e-(R) [8]: 1.27 | S/R (5000 nM): % inhibition 2e-(S) / % inhibition 2e-(R) [9]: 1.25 | S/R (5000 nM): % inhibition 2e-(S) / % inhibition 2e-(R) [10]: 1.38 | S/R (5000 nM): % inhibition 2e-(S) / % inhibition 2e-(R) [11]: 1.05 | S/R (5000 nM): % inhibition 2e-(S) / % inhibition 2e-(R) [12]: 1.31 | IC50 of compound Kinase/IC50 of compound Yes ([13]; Ret relative to Yes): 10.53 | augmentation/increase of 5's inherent selectivity ([13]; Ret versus Abl and Src, listed as 2e-(5)): ~8 fold | S/R (5000 nM): % inhibition 2e-(S) / % inhibition 2e-(R) ([13]; Ret, 5000 nM): 0.44 | IC50 of compound Kinase/IC50 of compound Yes ([14]; Yes relative to Yes): 1 | S/R (5000 nM): % inhibition 2e-(S) / % inhibition 2e-(R) ([14]; Yes, 5000 nM): 0.97 | IC50 of compound Kinase/IC50 of compound Yes [15]: 1.64 | IC50 of compound Kinase/IC50 of compound Yes [16]: >10.0 | S/R (5000 nM): % inhibition 2e-(S) / % inhibition 2e-(R) [17]: 1.63 | S/R (5000 nM): % inhibition 2e-(S) / % inhibition 2e-(R) [18]: 1.23
